# Assay results from publication PMC12087695, “A Phenotyping Tool for Seven Cytochrome P450 Enzymes and Two Transporters: Application to Examine the Effects of Clopidogrel and Gemfibrozil” (Clinical Pharmacology and Therapeutics, 2025).
# Columns and labels:
# clinical = conditions: human; for AUC(0-inf): AUC0-∞; for Tmax: median (range); for half-life: t1/2, geometric mean (geometric CV)
# [1] = Plasma pharmacokinetics of cocktail index drugs and their metabolites, five-phase crossover trial; conditions: for AUC(0-t) / AUC(0-inf) / Cmax / Tmax / half-life: human, plasma, oral; for AUC(0-t) / AUC(0-inf) / Cmax: geometric mean (geometric CV); for AUC(0-inf): AUC0-∞; for Tmax: median (range); for half-life: t1/2, geometric mean (geometric CV);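 as to all read-outs here: parameters derived from plasma drug levels quantified by LC–MS with internal standards after acetonitrile protein precipitation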
# [2] = in vivo, AUC0-23h, geometric mean (geometric CV), phase II: Geneva cocktail
# [3] = in vivo, AUC0-23h, geometric mean (geometric CV), phase IV: clopidogrel 300 mg pretreatment + full cocktail
# [4] = in vivo, AUC0-23h, geometric mean (geometric CV), phase V: gemfibrozil 600 mg b.i.d. 3 days pretreatment + full cocktail
# [5] = in vivo, geometric mean (geometric CV), phase II: Geneva cocktail
# [6] = in vivo, geometric mean (geometric CV), phase IV: clopidogrel 300 mg pretreatment + full cocktail
# [7] = in vivo, geometric mean (geometric CV), phase V: gemfibrozil 600 mg b.i.d. 3 days pretreatment + full cocktail
# [8] = in vivo, phase IV: clopidogrel 300 mg pretreatment + full cocktail
# [9] = in vivo, phase V: gemfibrozil 600 mg b.i.d. 3 days pretreatment + full cocktail
# [10] = in vivo, phase II: Geneva cocktail
# [11] = phase IV: clopidogrel 300 mg pretreatment + full cocktail
# [12] = phase V: gemfibrozil 600 mg b.i.d. 3 days pretreatment + full cocktail
# [13] = AUC0-12h, phase II: Geneva cocktail
Compound,AUC(0-t) (clinical; [2]),AUC(0-t) (clinical; [3]),AUC(0-t) (clinical; [4]),AUC(0-inf) (clinical; [5]),AUC(0-inf) (clinical; [6]),AUC(0-inf) (clinical; [7]),Cmax (clinical; [5]),Cmax (clinical; [6]),Cmax (clinical; [7]),half-life (clinical; [10]),half-life (clinical; [8]),half-life (clinical; [9]),"Tmax, median (range) ([1]; phase II: Geneva cocktail)","Tmax, median (range) [1, 11]","Cmax, geometric mean (geometric CV) ([1]; phase II: Geneva cocktail)","t1/2, geometric mean (geometric CV) [1, 11]","AUC0-23h, geometric mean (geometric CV) [1, 12]","t1/2, geometric mean (geometric CV) [1, 12]",other results
"CC(C(=O)O)c1ccc(-c2ccccc2)c(F)c1 (stereo not drawn) [Flurbiprofen, flurbiprofen]",5550 ng·h/mL,5720 ng·h/mL,5770 ng·h/mL,5910 ng·h/mL,5940 ng·h/mL,6080 ng·h/mL,1090 ng/mL,1180 ng/mL,1110 ng/mL,4.82 h,4.35 h,4.61 h,,,,,,,Tmax (clinical; [8]): 1.5 h; Tmax (clinical; [9]): 1.5 h
"COc1ccc2c(c1)[C@]13CCCC[C@@H]1[C@H](C2)N(C)CC3 [Dextromethorphan, dextromethorphan]",4.9 ng·h/mL,6.01 ng·h/mL,6.07 ng·h/mL,5.58 ng·h/mL,6.68 ng·h/mL,6.82 ng·h/mL,0.745 ng/mL,0.858 ng/mL,0.898 ng/mL,4.24 h,4.61 h,4.38 h,2.0 (2.0-4.0) h,2.0 (2.0-3.0) h,,,,,Tmax (clinical; [9]): 2.5 h
"CC(C(=O)O)c1ccc(-c2ccc(O)cc2)c(F)c1 (stereo not drawn) [4’-OH-flurbiprofen, 4′‐hydroxyflurbiprofen]",224 ng·h/mL,,,263 ng·h/mL,,,46.4 ng/mL,,,3.44 h,,,,,,,,,Tmax (clinical; [10]): 1.8 h
"COc1ccc2nc([S+]([O-])Cc3ncc(CO)c(OC)c3C)[nH]c2c1 (stereo not drawn) [5’-OH-omeprazole, 5′‐hydroxyomeprazole]",,,,,,,,,,,,,1.5 (1.0-2.0) h,1.5 (1.0-3.0) h,99.8 (87.9%) ng/mL,1.04 (15.5%) h,253 (37.6%) ng×h/mL,1.34 (32.6%) h,"AUC0-23h, geometric mean (geometric CV) ([1]; phase II: Geneva cocktail): 194 (35.7%) ng×h/mL; AUC0-∞, geometric mean (geometric CV) ([1]; phase II: Geneva cocktail): 193 (36.1%) ng×h/mL; t1/2, geometric mean (geometric CV) ([1]; phase II: Geneva cocktail): 1.17 (36.9%) h; AUC0-23h, geometric mean (geometric CV) [1, 11]: 213 (14.6%) ng×h/mL; AUC0-∞, geometric mean (geometric CV) [1, 11]: 212 (14.5%) ng×h/mL; Cmax, geometric mean (geometric CV) [1, 11]: 115 (23.8%) ng/mL; AUC0-∞, geometric mean (geometric CV) [1, 12]: 253 (36.9%) ng×h/mL; Cmax, geometric mean (geometric CV) [1, 12]: 104 (76.9%) ng/mL; Tmax, median (range) [1, 12]: 1.5 (1.0-4.0) h"
"Cn1c(=O)[nH]c2ncn(C)c2c1=O [Paraxanthine, paraxanthine]",,,,,,,,,,,,,,,,,,,"AUC(0-t) [1, 13]: 3370 ng·h/mL; AUC(0-t) ([1]; AUC0-12h, phase IV: clopidogrel 300 mg pretreatment + full cocktail): 3940 ng·h/mL; AUC(0-t) ([1]; AUC0-12h, phase V: gemfibrozil 600 mg b.i.d. 3 days pretreatment + full cocktail): 3360 ng·h/mL; AUC(0-inf) ([1]; phase II: Geneva cocktail): 7220 ng·h/mL; AUC(0-inf) [1, 11]: 8930 ng·h/mL; AUC(0-inf) [1, 12]: 9160 ng·h/mL; Cmax ([1]; phase II: Geneva cocktail): 374 ng/mL; Cmax [1, 11]: 436 ng/mL; Cmax [1, 12]: 358 ng/mL; Tmax ([1]; phase II: Geneva cocktail): 4 h; Tmax [1, 11]: 3 h; half-life ([1]; phase II: Geneva cocktail): 11 h; half-life [1, 11]: 12.8 h; half-life [1, 12]: 15.9 h"
"C[C@H]1NC(C)(C)CO[C@]1(O)c1cccc(Cl)c1 [OH-bupropion, hydroxybupropion]",,,,,,,,,,,,,3.0 (2.0-4.0) h,4.0 (1.5-12.0) h,36.9 (38.6%) ng/mL,34.6 (42.9%) h,585 (43.5%) ng×h/mL,29.4 (51.7%) h,"AUC0-23h, geometric mean (geometric CV) ([1]; phase II: Geneva cocktail): 571 (35.3%) ng×h/mL; AUC0-∞, geometric mean (geometric CV) ([1]; phase II: Geneva cocktail): 1200 (44.1%) ng×h/mL; t1/2, geometric mean (geometric CV) ([1]; phase II: Geneva cocktail): 26.1 (40.1%) h; AUC0-23h, geometric mean (geometric CV) [1, 11]: 181 (37.6%) ng×h/mL; AUC0-∞, geometric mean (geometric CV) [1, 11]: 499 (45.3%) ng×h/mL; Cmax, geometric mean (geometric CV) [1, 11]: 10.3 (39.9%) ng/mL; AUC0-∞, geometric mean (geometric CV) [1, 12]: 1380 (41.2%) ng×h/mL; Cmax, geometric mean (geometric CV) [1, 12]: 34.1 (44.6%) ng/mL; Tmax, median (range) [1, 12]: 6.0 (1.0-12.0) h"
"Cc1ncc2n1-c1ccc(Cl)cc1C(c1ccccc1F)=NC2 [Midazolam, midazolam]",9.89 ng·h/mL,11.3 ng·h/mL,8.06 ng·h/mL,9.82 ng·h/mL,11.2 ng·h/mL,7.98 ng·h/mL,,4.33 ng/mL,3.25 ng/mL,2.29 h,2.4 h,2.29 h,0.5 (0.5-1.0) h,1.0 (0.5-1.0) h,4.03 (36.4%) ng/mL,,,,
"CN1CC[C@@]23CCCC[C@@H]2[C@@H]1Cc1ccc(O)cc13 [Dextrorphan, dextrorphan]",8.07 ng·h/mL,9.66 ng·h/mL,17.8 ng·h/mL,8.35 ng·h/mL,10 ng·h/mL,17.8 ng·h/mL,1.82 ng/mL,2.05 ng/mL,3.63 ng/mL,2.5 h,2.68 h,2.77 h,,,,,,,Tmax (clinical; [10]): 2 h; Tmax (clinical; [8]): 2 h; Tmax (clinical; [9]): 2 h
"CC(NC(C)(C)C)C(=O)c1cccc(Cl)c1 (stereo not drawn) [Bupropion, bupropion]",76.5 ng·h/mL,,,84.7 ng·h/mL,,,20 ng/mL,,,7.89 h,,,,,,,,,
"COc1ccc2nc(S(=O)(=O)Cc3ncc(C)c(OC)c3C)[nH]c2c1 [Omeprazole sulfone, omeprazole sulfone]",,,,,,,,,,,,,,,,,,,"AUC(0-t) ([1]; AUC0-23h, phase II: Geneva cocktail): 113 ng·h/mL; AUC(0-t) ([1]; AUC0-23h, phase IV: clopidogrel 300 mg pretreatment + full cocktail): 156 ng·h/mL; AUC(0-t) ([1]; AUC0-23h, phase V: gemfibrozil 600 mg b.i.d. 3 days pretreatment + full cocktail): 124 ng·h/mL; AUC(0-inf) ([1]; phase II: Geneva cocktail): 111 ng·h/mL; AUC(0-inf) [1, 11]: 154 ng·h/mL; AUC(0-inf) [1, 12]: 122 ng·h/mL; Cmax ([1]; phase II: Geneva cocktail): 35.3 ng/mL; Cmax [1, 11]: 51.2 ng/mL; Cmax [1, 12]: 41.8 ng/mL; Tmax ([1]; phase II: Geneva cocktail): 1.5 h; Tmax [1, 11]: 1.5 h; Tmax [1, 12]: 1.5 h; half-life ([1]; phase II: Geneva cocktail): 1.9 h; half-life [1, 11]: 1.88 h; half-life [1, 12]: 1.64 h"
"OCc1ncc2n1-c1ccc(Cl)cc1C(c1ccccc1F)=NC2 [1’-OH-midazolam, 1′‐hydroxymidazolam]",,,,,,,,,,,,,1.0 (0.5-1.0) h,1.0 (0.5-1.0) h,1.48 (40.9%) ng/mL,1.46 (26.6%) h,7.33 (41.1%) ng×h/mL,1.85 (28.8%) h,"AUC0-23h, geometric mean (geometric CV) ([1]; phase II: Geneva cocktail): 3.54 (37.4%) ng×h/mL; AUC0-∞, geometric mean (geometric CV) ([1]; phase II: Geneva cocktail): 3.75 (35.9%) ng×h/mL; t1/2, geometric mean (geometric CV) ([1]; phase II: Geneva cocktail): 1.53 (35.6%) h; AUC0-23h, geometric mean (geometric CV) [1, 11]: 5.03 (42.0%) ng×h/mL; AUC0-∞, geometric mean (geometric CV) [1, 11]: 5.15 (39.8%) ng×h/mL; Cmax, geometric mean (geometric CV) [1, 11]: 2.14 (42.5%) ng/mL; AUC0-∞, geometric mean (geometric CV) [1, 12]: 7.65 (36.6%) ng×h/mL; Cmax, geometric mean (geometric CV) [1, 12]: 2.83 (38.7%) ng/mL; Tmax, median (range) [1, 12]: 1.0 (0.5-1.5) h"
"Cn1c(=O)c2c(ncn2C)n(C)c1=O [Caffeine, caffeine]",,,,,,,,,,,,,,,,,,,"Prolongation of t1/2 ([1]; gemfibrozil pretreatment vs control): 21%; AUC(0-t) [1, 13]: 6250 ng·h/mL; AUC(0-inf) ([1]; phase II: Geneva cocktail): 7830 ng·h/mL; Cmax ([1]; phase II: Geneva cocktail): 1130 ng/mL; half-life ([1]; phase II: Geneva cocktail): 4.65 h; AUC(0-t) (clinical; plasma, oral): 6270 ng·h/mL"
"COc1ccc2[nH]c([S+]([O-])Cc3ncc(C)c(OC)c3C)nc2c1 (stereo not drawn) [Omeprazole, omeprazole]",177 ng·h/mL,214 ng·h/mL,,177 ng·h/mL,214 ng·h/mL,149 ng·h/mL,,167 ng/mL,98 ng/mL,0.76 h,,,,,144 (88.5%) ng/mL,0.69 (30.9%) h,150 (62.8%) ng×h/mL,0.78 (59.9%) h,
